According to patent US6627246B2, “Process for coating stents and other medical devices using super-critical carbon dioxide” (Ortho-McNeil Pharmaceutical, Inc., priority 2000, dated 2003):

Tests used:
[1] = Determination of RWJ-53308 on the PLGA coated stent (24 h water maceration, UV 261 nm); assay type: physicochemical; conditions: macerated 24 hours in 2 mL water, UV absorbance 261 nm
Method: A coated stent obtained in step b above was placed in a tube with 2 mL. water. The coated stent was allowed to macerate for 24 hours. The aqueous supernatant was drained, filtered and UV absorbance was read at 261 nm. The amount of RWJ-53308 on the stent was calculated by comparing the absorbance value of a standard solution containing 147 μg/mL solution of RWJ-53308. Thus the supernatant obtained by extracting the drug from the PLGA coated stent contained 105 μg of RWJ-53308.

[2] = In-vitro release study of RWJ-53308 from PLGA coated stent; assay type: physicochemical; conditions: from PLGA coated stent in 2 mL water
Method: A coated stent obtained in step b was placed in a tube with 2 mL of water. A 1 mL. aliquot was taken at the 1 hr and at the 17.5 hour time point. This 1 mL. aliquot was replaced with fresh water at each sampling. The sampled aliquot was analyzed by reading UV absorbance at 261 nm. The drug concentration was calculated by comparing the absorbance of a standard solution containing 147 μg/mL aqueous solution of RWJ-53308.
It was observed that approx. 66 ug of RWJ-53308 was released at 1 hour and a cumulative amount of approx. 134 ug was released at 17.5 hours as shown in FIG. 1.

amount of RWJ-53308 in supernatant extracted from PLGA coated stent [1]: 105 µg
amount of RWJ-53308 released ([2]; at 1 hour): approx. 66 ug
cumulative amount of RWJ-53308 released ([2]; at 17.5 hours): approx. 134 ug
SMILES: O=C(O)C[C@H](NC(=O)[C@@H]1CCCN(C(=O)CCC2CCNCC2)C1)c1cccnc1 [RWJ-53308, 3-Pyridinepropanoic acid, b-[[[(3R)-1-[1-oxo-3-(4-piperidinyl)propyl]-3-piperidinyl]carbonyl]amino]-, (bS)-(9CI)]
